Active and inactive are the calls of the source. No cut-off for these calls is given here.
Tests used:
Rattus norvegicus [1] = species on record: Rattus norvegicus; assay: Activity at RYR2 receptor in rat cerebellar granule neurons assessed as increase in intracellular calcium level at 20 uM; assay type: cell-based
Rattus norvegicus [2] = species on record: Rattus norvegicus; assay: Activity at RYR2 receptor in rat cerebellar granule neurons assessed activation of [45Ca2+] uptake at 20 uM after 10 mins
Ryanodine receptor 1 = Ryanodine receptor 1 (Homo sapiens, UniProt P21817); assay: Binding affinity to RYR1 channels by calcium mobilization assay
Ryanodine receptor 1, sequence (P21817 whole entry): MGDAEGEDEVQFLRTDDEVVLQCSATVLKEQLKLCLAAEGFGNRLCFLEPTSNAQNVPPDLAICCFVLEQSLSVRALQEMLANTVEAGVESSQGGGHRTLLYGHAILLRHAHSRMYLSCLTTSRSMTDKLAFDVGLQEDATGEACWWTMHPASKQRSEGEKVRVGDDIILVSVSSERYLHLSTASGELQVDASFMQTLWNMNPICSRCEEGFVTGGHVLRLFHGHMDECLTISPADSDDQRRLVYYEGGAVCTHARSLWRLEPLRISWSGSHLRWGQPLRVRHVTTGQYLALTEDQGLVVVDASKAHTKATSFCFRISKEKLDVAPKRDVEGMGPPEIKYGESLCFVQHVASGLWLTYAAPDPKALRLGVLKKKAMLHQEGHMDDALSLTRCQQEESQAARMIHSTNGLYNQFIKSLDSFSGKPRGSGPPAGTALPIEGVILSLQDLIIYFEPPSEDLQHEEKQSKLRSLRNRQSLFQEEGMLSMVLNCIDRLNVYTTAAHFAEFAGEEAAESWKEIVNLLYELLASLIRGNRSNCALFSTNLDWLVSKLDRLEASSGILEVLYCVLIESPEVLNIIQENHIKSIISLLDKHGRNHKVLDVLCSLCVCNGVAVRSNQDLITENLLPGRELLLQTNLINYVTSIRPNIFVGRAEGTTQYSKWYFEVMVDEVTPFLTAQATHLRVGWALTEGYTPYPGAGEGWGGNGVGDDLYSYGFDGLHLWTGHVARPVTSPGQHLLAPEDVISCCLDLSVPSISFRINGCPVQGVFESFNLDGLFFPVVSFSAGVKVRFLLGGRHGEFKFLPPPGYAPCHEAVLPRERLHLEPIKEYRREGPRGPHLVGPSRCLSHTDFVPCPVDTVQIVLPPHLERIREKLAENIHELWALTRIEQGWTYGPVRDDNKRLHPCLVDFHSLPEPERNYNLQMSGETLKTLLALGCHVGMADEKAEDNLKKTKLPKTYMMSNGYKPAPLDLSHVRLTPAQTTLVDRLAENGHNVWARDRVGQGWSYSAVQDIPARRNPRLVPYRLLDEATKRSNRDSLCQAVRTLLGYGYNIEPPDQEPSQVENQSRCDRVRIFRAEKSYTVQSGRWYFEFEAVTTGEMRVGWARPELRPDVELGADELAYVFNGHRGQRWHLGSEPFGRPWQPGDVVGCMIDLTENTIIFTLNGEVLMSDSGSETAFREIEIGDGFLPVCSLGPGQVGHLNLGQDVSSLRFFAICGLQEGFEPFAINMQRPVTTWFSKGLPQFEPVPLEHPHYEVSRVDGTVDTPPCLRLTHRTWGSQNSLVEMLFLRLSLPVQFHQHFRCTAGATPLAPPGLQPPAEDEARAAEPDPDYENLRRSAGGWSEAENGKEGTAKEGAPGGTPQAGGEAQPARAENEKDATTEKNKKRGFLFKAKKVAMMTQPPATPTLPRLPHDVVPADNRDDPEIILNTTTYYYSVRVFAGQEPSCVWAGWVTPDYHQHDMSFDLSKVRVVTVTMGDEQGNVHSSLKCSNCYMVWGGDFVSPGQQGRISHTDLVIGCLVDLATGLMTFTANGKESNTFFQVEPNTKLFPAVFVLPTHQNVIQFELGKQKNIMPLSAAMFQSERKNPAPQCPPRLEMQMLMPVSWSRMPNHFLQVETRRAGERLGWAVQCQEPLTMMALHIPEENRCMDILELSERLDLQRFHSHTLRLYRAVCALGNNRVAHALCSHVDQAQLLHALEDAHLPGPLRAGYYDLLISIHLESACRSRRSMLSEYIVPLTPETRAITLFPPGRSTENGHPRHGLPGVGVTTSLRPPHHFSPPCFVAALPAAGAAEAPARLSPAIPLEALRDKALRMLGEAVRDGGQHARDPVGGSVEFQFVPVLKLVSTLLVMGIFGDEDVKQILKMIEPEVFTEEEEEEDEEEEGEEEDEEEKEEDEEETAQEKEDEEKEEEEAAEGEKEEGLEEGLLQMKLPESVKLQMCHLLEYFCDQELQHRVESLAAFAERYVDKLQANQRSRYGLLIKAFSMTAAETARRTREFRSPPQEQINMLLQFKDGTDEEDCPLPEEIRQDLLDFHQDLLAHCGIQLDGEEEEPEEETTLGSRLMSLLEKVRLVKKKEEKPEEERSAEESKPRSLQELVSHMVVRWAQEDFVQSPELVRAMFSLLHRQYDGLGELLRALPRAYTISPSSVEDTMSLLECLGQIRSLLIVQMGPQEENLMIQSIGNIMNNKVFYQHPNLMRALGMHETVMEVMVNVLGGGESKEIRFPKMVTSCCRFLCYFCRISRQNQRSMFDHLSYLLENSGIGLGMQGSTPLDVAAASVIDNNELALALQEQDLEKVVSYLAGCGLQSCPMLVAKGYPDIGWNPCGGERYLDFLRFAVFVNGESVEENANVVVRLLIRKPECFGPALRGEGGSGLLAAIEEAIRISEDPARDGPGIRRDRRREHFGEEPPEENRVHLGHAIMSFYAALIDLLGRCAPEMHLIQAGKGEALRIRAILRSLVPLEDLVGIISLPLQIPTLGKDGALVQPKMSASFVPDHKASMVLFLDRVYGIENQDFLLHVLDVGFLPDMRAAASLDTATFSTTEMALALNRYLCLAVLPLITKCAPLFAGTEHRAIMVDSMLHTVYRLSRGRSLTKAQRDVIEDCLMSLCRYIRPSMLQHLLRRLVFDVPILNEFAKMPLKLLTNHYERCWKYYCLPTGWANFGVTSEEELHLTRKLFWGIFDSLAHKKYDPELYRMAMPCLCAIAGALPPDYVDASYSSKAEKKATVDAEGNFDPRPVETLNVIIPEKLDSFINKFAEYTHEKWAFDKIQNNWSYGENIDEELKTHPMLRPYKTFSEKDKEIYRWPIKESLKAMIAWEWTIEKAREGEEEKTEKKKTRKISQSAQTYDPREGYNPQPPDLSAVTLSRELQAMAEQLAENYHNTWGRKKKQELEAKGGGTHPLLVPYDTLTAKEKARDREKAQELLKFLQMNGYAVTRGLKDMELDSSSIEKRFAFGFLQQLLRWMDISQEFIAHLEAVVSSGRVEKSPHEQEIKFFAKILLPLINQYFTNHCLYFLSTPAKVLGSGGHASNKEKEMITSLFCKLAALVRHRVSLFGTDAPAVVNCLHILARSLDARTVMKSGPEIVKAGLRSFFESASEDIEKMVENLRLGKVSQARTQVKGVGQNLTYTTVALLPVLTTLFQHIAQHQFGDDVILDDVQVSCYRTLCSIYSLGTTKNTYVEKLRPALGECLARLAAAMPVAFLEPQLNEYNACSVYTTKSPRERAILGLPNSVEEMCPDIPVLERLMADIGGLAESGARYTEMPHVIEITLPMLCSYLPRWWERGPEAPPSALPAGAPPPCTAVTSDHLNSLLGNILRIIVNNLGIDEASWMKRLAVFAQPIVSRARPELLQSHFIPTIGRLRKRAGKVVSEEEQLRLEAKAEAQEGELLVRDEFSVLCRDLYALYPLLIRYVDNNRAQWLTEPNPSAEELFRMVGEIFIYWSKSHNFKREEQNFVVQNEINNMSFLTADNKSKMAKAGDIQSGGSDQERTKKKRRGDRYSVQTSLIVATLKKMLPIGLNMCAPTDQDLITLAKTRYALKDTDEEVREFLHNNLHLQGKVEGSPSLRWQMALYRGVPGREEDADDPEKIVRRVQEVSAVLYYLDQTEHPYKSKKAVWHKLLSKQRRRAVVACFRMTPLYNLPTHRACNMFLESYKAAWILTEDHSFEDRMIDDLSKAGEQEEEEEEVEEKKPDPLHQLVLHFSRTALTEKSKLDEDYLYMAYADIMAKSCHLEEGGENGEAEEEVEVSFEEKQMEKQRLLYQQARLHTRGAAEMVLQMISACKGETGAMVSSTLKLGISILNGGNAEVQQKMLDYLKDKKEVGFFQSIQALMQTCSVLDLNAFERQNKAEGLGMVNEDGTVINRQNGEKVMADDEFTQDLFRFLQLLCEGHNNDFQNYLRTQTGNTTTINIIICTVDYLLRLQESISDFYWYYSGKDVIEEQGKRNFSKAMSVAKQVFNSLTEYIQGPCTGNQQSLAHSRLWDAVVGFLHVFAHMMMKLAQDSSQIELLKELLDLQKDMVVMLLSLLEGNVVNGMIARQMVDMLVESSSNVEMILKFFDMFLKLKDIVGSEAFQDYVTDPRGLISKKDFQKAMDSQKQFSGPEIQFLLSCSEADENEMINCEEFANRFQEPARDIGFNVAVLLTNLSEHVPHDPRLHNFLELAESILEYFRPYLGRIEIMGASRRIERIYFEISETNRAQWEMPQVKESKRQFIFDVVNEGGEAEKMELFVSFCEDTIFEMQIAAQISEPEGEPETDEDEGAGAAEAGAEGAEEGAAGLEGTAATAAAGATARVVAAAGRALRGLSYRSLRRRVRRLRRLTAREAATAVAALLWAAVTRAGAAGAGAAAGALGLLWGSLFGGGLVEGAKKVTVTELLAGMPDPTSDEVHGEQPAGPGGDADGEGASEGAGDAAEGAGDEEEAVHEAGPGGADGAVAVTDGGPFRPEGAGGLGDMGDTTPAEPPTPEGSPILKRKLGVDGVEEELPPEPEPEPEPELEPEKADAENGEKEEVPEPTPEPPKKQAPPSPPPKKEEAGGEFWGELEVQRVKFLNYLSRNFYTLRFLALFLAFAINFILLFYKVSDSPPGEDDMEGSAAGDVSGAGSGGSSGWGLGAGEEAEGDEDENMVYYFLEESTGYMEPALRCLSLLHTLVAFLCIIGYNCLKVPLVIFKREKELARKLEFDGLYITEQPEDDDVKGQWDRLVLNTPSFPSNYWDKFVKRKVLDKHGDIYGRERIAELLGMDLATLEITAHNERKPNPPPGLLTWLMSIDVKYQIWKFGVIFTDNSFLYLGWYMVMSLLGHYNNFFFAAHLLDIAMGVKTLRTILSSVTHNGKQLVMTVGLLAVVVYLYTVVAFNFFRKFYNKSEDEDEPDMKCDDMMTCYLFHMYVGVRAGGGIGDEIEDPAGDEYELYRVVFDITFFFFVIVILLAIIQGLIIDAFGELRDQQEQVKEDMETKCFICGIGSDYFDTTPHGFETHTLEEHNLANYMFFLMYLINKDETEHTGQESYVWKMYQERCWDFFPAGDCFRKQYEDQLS

With CCCCNC(=O)/C(Cc1cc(Br)c(Oc2cc(C/C(=N\O)C(=O)NCCCC)cc(Br)c2O)c(Br)c1)=N/O the Activity (Rattus norvegicus [1]) was “Active” and the Activity (Rattus norvegicus [2]) was “Active”.
O=C1CCc2ccc(c(Br)c2)Oc2cc(cc(Br)c2O)CCN1 was tested, and the EC50 (Ryanodine receptor 1) was 11 µM.
O=C(NCCc1cc(Br)c(Oc2cc(NC(=O)c3ccccc3)ccc2O)c(Br)c1)c1ccccc1 was tested, and the Activity (Rattus norvegicus [1]) was “inactive”.
With O=C1NCCc2cc(Br)c(O)c(c2)Oc2ccc(cc2Br)CCNC(=O)/C(=N\O)Cc2cc(Br)c(O)c(c2)Oc2c(Br)cc(cc2Br)C/C1=N/O the Activity (Rattus norvegicus [1]) was “Active” and the Activity (Rattus norvegicus [2]) was “Active”.
For O=C1CCNC(=O)CCc2ccc(c(Br)c2)Oc2cc(cc(Br)c2O)CCN1, the IC50 (Ryanodine receptor 1) was 6 µM.

Source: ChEMBL document CHEMBL1143439, “Open-chain half-bastadins mimic the effects of cyclic bastadins on calcium homeostasis in cultured neurons” (Bioorg Med Chem Lett, 2008)
